Experiments:
[1] = target: T1, Alpha-1B adrenergic receptor (Homo sapiens, UniProt P35368); test: Binding affinity towards human Alpha-1B adrenergic receptor
T1 sequence (P35368 whole entry): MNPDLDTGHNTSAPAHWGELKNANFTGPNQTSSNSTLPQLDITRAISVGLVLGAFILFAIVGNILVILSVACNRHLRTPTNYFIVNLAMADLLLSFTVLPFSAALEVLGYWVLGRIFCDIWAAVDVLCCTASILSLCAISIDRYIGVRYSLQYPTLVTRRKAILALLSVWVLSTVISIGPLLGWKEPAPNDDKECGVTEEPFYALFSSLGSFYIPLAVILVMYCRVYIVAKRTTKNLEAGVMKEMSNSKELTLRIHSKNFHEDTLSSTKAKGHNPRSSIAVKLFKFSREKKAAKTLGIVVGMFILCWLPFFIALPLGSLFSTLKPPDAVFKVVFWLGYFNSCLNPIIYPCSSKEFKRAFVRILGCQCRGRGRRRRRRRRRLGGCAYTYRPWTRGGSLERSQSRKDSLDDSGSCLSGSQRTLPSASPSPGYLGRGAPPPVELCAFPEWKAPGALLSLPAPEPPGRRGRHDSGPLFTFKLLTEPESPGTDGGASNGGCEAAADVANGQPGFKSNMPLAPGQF

[2] = target: T2, Alpha-1B adrenergic receptor (Rattus norvegicus, UniProt P15823); test: In vitro functional activity at Alpha-1B adrenergic receptor in rat spleen; assay type: tissue-based; settings: read-out: pA2 (converted)
T2 sequence (P15823 whole entry): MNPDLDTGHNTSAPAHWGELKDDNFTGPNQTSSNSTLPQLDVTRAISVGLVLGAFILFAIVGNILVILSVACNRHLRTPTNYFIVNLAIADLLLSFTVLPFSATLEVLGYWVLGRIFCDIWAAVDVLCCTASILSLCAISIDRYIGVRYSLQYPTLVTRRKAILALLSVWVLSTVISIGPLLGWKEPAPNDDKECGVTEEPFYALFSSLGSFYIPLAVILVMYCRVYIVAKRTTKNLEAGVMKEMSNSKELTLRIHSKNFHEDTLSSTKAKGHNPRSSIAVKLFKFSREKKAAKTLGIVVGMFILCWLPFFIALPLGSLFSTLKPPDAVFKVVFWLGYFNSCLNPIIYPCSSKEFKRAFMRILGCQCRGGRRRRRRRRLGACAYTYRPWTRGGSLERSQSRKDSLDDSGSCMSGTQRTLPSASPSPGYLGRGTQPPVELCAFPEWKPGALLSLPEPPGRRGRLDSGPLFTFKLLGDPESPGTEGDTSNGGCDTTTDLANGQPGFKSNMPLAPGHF

[3] = target: T3, Alpha-1A adrenergic receptor (Bos taurus, UniProt P18130); test: Binding affinity towards bovine Alpha-1A adrenergic receptor
T3 sequence (P18130 whole entry): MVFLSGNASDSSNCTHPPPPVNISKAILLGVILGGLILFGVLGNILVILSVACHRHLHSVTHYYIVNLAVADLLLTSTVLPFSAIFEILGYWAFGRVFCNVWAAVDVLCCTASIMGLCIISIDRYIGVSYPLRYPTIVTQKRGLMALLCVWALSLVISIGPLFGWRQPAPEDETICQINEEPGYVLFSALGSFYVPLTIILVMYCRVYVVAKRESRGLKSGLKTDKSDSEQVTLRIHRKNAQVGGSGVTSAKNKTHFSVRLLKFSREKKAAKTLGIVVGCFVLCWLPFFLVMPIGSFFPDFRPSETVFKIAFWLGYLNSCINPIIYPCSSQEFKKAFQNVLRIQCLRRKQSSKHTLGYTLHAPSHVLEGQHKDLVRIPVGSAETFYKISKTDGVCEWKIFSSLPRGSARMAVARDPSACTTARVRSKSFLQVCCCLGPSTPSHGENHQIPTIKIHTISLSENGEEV

[4] = target: T4, Alpha-1D adrenergic receptor (Rattus norvegicus, UniProt P23944); test: Binding affinity towards rat Alpha-1D adrenergic receptor
T4 sequence (P23944 whole entry): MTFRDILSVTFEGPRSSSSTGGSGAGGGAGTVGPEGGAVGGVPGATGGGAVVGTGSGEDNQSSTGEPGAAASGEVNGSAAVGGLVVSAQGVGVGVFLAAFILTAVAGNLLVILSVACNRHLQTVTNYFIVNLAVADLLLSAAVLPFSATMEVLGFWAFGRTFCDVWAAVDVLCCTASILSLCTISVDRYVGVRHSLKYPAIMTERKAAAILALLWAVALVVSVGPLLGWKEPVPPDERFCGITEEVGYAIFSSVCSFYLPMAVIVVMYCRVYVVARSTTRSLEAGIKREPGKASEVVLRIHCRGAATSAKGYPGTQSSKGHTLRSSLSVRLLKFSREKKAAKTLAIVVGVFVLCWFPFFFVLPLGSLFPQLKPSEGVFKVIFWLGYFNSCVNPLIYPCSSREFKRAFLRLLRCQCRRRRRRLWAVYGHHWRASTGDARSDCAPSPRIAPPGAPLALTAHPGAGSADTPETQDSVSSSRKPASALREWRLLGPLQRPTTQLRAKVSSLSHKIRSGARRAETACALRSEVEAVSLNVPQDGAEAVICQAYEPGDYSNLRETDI

[5] = target: T5, Alpha-1A adrenergic receptor (Rattus norvegicus, UniProt P43140); test: Binding affinity towards rat Alpha-1A adrenergic receptor
T5 sequence (P43140 whole entry): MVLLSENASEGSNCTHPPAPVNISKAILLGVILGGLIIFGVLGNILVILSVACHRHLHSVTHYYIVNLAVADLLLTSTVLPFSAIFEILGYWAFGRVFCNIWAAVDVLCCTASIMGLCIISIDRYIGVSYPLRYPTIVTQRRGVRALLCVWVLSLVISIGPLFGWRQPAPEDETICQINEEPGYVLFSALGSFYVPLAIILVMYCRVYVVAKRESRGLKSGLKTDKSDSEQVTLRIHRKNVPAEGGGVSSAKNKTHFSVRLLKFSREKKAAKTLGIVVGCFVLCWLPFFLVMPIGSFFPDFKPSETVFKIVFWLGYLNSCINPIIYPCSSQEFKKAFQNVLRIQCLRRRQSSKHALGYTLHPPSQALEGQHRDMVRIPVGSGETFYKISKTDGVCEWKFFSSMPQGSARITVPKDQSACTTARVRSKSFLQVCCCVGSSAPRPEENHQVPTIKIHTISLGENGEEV

[6] = target: T6, Alpha-1A adrenergic receptor (Homo sapiens, UniProt P35348); test: Binding affinity for human Alpha-1A adrenergic receptor
T6 sequence (P35348 whole entry): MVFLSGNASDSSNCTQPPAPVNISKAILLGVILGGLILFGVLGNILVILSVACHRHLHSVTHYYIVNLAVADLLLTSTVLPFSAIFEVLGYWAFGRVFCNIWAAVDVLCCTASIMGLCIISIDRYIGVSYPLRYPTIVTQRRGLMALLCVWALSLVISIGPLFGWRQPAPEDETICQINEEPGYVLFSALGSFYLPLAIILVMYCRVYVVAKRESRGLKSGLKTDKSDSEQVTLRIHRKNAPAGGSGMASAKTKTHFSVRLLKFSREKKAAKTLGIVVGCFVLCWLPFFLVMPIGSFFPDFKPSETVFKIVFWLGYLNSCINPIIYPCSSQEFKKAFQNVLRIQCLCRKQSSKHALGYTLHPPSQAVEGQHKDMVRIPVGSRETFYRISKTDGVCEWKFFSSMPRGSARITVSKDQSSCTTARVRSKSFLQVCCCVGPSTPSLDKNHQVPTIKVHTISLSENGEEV

[7] = target: T7, Alpha-1D adrenergic receptor (Homo sapiens, UniProt P25100); test: Binding affinity towards human Alpha-1D adrenergic receptor
T7 sequence (P25100 whole entry): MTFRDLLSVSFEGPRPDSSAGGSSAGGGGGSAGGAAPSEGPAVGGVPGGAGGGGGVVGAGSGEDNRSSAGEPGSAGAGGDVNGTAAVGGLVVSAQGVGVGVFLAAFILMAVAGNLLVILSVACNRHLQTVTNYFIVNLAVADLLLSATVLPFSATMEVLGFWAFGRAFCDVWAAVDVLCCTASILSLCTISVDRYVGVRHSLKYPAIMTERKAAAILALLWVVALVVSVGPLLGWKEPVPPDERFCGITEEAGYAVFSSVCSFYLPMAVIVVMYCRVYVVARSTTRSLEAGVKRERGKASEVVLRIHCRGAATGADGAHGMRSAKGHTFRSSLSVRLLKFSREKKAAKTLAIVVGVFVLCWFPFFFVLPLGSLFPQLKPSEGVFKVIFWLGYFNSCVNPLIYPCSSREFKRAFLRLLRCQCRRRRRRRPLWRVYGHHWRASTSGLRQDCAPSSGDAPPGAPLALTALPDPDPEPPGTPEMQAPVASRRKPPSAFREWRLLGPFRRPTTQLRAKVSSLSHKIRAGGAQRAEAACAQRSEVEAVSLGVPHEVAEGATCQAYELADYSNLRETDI

| Ki [1] [nM] | Kb [2] [nM] | Ki [3] [nM] | Ki [4] [nM] | Ki [5] [nM] | Ki [6] [nM] | Ki [7] [nM] | SMILES |
| --- | --- | --- | --- | --- | --- | --- | --- |
| 94.3 | 42.7 | 43 |  |  |  |  | COc1ccccc1N1CCN(CCN2C(=O)CC3(CCCC3)CC2=O)CC1 [BMY-7378] |
| 3.7 |  | 0.377 | 0.251 | 1.97 | 2.63 | 0.466 | COc1ccccc1N1CCN(CCn2c(=O)[nH]c3sc(C)c(-c4ccccc4)c3c2=O)CC1 |
| 1.86 |  | 0.248 | 0.361 | 0.578 | 0.868 |  | COc1ccccc1N1CCN(CCn2c(=O)[nH]c3sc(-c4ccccc4)cc3c2=O)CC1 |
| 1.22 |  | 0.181 | 0.229 | 0.523 | 0.344 | 0.308 | COc1ccccc1N1CCN(CCn2c(=O)[nH]c3sccc3c2=O)CC1 |
|  |  | 0.436 | 0.71 | 2.62 | 3.1 |  | COc1ccccc1N1CCN(CCn2c(=O)c3c(-c4ccccc4)csc3n(C)c2=O)CC1 |
|  |  |  |  |  | 14900 | 1.3 | CC(CN1CCN(c2cc(F)c(F)cc2F)CC1)N1C(=O)CC2(CCCC2)CC1=O (single isomer, unassigned) |
| 15.8 |  | 1.25 | 8.2 | 9.58 | 8.49 | 7.15 | COc1ccccc1N1CCN(CCCn2c(=O)[nH]c3scc(-c4ccccc4)c3c2=O)CC1 |
